The source of these data is patent US12440484B2, “1,3,4-oxadiazole homophthalimide derivative compounds as histone deacetylase 6 inhibitor, and the pharmaceutical composition comprising the same” (Chong Kun Dang Pharmaceutical Corp., priority 2019, dated 2025).

Bounds are passed on as bounds.

In one assay the target is HDAC6 human recombinant (Homo sapiens (Human), UniProt Q9UBN7). Kind of assay: HDAC enzyme activity inhibition (in vitro), HDAC6 assay. To be noted: samples at 0.1, 1, 10, 100 and 1000 nM; 37° C. 60 minutes; fluorescence Ex 390, Em 460. Format: biochemical.
Sequence of HDAC6 human recombinant (Q9UBN7 whole entry): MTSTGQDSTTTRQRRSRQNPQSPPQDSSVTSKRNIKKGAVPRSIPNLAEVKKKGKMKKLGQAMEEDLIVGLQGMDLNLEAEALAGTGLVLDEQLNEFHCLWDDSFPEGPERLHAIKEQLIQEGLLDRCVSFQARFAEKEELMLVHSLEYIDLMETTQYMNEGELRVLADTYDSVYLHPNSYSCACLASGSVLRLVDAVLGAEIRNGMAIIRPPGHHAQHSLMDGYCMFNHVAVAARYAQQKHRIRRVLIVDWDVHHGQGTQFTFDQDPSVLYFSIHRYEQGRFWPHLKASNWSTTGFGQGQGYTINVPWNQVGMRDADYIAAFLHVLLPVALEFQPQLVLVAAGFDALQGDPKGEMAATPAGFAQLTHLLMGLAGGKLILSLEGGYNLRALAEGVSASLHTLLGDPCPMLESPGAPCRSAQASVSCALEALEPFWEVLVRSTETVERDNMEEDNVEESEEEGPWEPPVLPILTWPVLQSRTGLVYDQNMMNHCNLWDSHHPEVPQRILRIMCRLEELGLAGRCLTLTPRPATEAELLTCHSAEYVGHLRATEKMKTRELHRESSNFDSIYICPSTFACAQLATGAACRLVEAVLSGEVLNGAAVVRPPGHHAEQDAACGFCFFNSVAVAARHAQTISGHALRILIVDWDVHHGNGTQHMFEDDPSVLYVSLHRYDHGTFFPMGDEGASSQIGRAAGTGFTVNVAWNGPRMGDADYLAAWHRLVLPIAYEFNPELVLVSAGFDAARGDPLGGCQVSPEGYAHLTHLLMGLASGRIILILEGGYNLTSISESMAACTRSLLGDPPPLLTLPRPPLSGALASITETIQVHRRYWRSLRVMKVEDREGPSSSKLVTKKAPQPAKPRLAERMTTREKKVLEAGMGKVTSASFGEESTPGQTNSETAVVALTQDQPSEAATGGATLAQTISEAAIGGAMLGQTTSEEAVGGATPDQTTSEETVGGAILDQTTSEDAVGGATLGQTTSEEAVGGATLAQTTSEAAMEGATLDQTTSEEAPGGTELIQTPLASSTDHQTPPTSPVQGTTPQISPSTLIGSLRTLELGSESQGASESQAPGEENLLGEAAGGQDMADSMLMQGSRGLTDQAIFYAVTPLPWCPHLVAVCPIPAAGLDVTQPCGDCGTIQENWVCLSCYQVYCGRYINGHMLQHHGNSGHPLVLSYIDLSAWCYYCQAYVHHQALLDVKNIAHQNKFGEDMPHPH
Another assay concerns the target HDAC1 (Homo sapiens (Human), UniProt Q13547). The assay can be described thus: HDAC enzyme activity inhibition (in vitro), HDAC1 Fluorimetric Drug Discovery Assay Kit. It is filed as biochemical. Particulars: samples at 100, 1000 and 10000 nM; 37° C. 60 minutes; fluorescence Ex 390, Em 460.

Sequence of HDAC1 (Q13547 whole entry): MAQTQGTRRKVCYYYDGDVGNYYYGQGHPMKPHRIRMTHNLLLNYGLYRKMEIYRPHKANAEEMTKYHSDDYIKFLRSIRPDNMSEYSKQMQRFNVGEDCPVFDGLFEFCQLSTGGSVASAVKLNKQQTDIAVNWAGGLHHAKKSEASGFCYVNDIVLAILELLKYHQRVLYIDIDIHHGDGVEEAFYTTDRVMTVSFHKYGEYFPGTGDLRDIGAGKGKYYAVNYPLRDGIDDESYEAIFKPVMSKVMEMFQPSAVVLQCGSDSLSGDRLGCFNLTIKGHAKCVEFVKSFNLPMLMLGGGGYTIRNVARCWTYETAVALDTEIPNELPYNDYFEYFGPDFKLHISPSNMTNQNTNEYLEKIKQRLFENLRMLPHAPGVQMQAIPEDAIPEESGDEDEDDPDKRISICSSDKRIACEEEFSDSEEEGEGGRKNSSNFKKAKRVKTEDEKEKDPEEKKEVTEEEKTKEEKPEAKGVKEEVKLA

As to `CC1(C)C(=O)N(Cc2ccc(-c3nnc(C(F)F)o3)cn2)C(=O)c2cc(C3CCN(S(C)(=O)=O)CC3)ccc21` [Compound 128, 2-((5-(5-(difluoromethyl)-1,3,4-oxadiazole-2-yl)pyridine-2-yl)methyl)-4,4-dimethyl-7-(1-(methylsulfonyl)piperidine-4-yl)isoquinoline-1,3(2H,4H)-dione], the figures for the half-maximal inhibitory concentration (IC50) at HDAC6 human recombinant and against HDAC1 were 70 nM and above 10000 nM, respectively.

Consider `CC1(C)C(=O)N(Cc2ccc(-c3nnc(C(F)F)o3)cn2)C(=O)c2cc(-c3ccccc3F)ccc21` [Compound 109, 2-((5-(5-(difluoromethyl)-1,3,4-oxadiazole-2-yl)pyridine-2-yl)methyl)-7-(2-fluorophenyl)-4,4-dimethylisoquinoline-1,3(2H,4H)-dione], for which the results for the IC50 at HDAC6 human recombinant and at HDAC1 were 107 nM and above 10000 nM, respectively.

For the molecule `CC1(C)C(=O)N(Cc2ccc(-c3nnc(C(F)F)o3)cn2)C(=O)c2cc(C3CCN(C4CCOC4)CC3)ccc21` (stereo not drawn) [Compound 146, 2-((5-(5-(difluoromethyl)-1,3,4-oxadiazole-2-yl)pyridine-2-yl)methyl)-4,4-dimethyl-7-(1-(tetrahydrofuran-3-yl)piperidine-4-yl)isoquinoline-1,3(2H,4H)-dione], the IC50 (commonly the concentration needed to halve the response being measured) at HDAC6 human recombinant is 58 nM; on HDAC1, above 10000 nM.

`COCCn1c(=O)c2ccccc2n(Cc2ccc(-c3nnc(C(F)F)o3)cc2)c1=O` [Compound 75, 1-(4-(5-(difluoromethyl)-1,3,4-oxadiazole-2-yl)benzyl)-3-(2-methoxyethyl)quinazoline-2,4(1H,3H)-dione]: the figures for the IC50 on HDAC6 human recombinant and on HDAC1 were 368 nM and above 10000 nM, respectively.

In the case of `CN1CCN(c2ccc3c(c2)C(=O)N(Cc2ccc(-c4nnc(C(F)F)o4)cn2)C(=O)C3(C)C)CC1` [Compound 118, 2-((5-(5-(difluoromethyl)-1,3,4-oxadiazole-2-yl)pyridine-2-yl)methyl)-4,4-dimethyl-7-(4-methylpiperazine-1-yl)isoquinoline-1,3(2H,4H)-dione], the IC50 on HDAC6 human recombinant is 22 nM; on HDAC1, above 10000 nM.

Consider `CN1CCC(c2ccc3c(c2)C(C)(C)C(=O)N(Cc2ccc(-c4nnc(C(F)F)o4)cn2)C3=O)CC1` [Compound 44, 2-((5-(5-(difluoromethyl)-1,3,4-oxadiazole-2-yl)pyridine-2-yl)methyl)-4,4-dimethyl-6-(1-methylpiperidine-4-yl)isoquinoline-1,3(2H,4H)-dione], for which the values for the IC50 on HDAC6 human recombinant and against HDAC1 were 19 nM and above 10000 nM, respectively.

Regarding `CC1(C)C(=O)N(Cc2ccc(-c3nnc(C(F)F)o3)cn2)C(=O)c2cc(C3CCN(CC(F)(F)F)CC3)ccc21` [Compound 135, 2-((5-(5-(difluoromethyl)-1,3,4-oxadiazole-2-yl)pyridine-2-yl)methyl)-4,4-dimethyl-7-(1-(2,2,2-trifluoroethyl)piperidine-4-yl)isoquinoline-1,3(2H,4H)-dione], the IC50 at HDAC6 human recombinant was 100 nM; at HDAC1, above 10000 nM.

As for `O=C1c2ccccc2C2(CCC2)C(=O)N1Cc1ccc(-c2nnc(C(F)F)o2)cn1` [Compound 4, 2′-((5-(5-(difluoromethyl)-1,3,4-oxadiazole-2-yl)pyridine-2-yl)methyl)-1′H-spiro[cyclobutane-1,4′-isoquinoline]-1′,3′(2′H)-dione], the IC50 at HDAC6 human recombinant is 32 nM; on HDAC1, above 10000 nM.

For `CCN1CCC(c2ccc3c(c2)C(=O)N(Cc2ccc(-c4nnc(C(F)F)o4)cn2)C(=O)C3(C)C)CC1` [Compound 68, 2-((5-(5-(difluoromethyl)-1,3,4-oxadiazole-2-yl)pyridine-2-yl)methyl)-7-(1-ethylpiperidine-4-yl)-4,4-dimethylisoquinoline-1,3(2H,4H)-dione], the IC50 on HDAC6 human recombinant was 20 nM; at HDAC1, above 10000 nM.

For the molecule `CC1(C)C(=O)N(Cc2ccc(-c3nnc(C(F)F)o3)cn2)C(=O)c2c(N3CCOCC3)cccc21` [Compound 83, 2-((5-(5-(difluoromethyl)-1,3,4-oxadiazole-2-yl)pyridine-2-yl)methyl)-4,4-dimethyl-8-morpholinoisoquinoline-1,3(2H,4H)-dione], the half-inhibitory concentration (IC50) at HDAC6 human recombinant is 98 nM; at HDAC1, above 10000 nM.

As to `CC1(C)C(=O)N(Cc2ccc(-c3nnc(C(F)F)o3)cn2)C(=O)c2ccc(N3CCN(CC4CCCCC4)CC3)cc21` [Compound 48, 6-(4-(cyclohexylmethyl)piperazine-1-yl)-2-((5-(5-(difluoromethyl)-1,3,4-oxadiazole-2-yl)pyridine-2-yl)methyl)-4,4-dimethylisoquinoline-1,3(2H,4H)-dione], the 50% inhibitory concentration (IC50) was 342 nM on HDAC6 human recombinant and above 10000 nM against HDAC1.

`O=c1c2ccccc2n(CCN2CCCCC2)c(=O)n1Cc1ccc(-c2nnc(C(F)F)o2)cc1` [Compound 11, 3-(4-(5-(difluoromethyl)-1,3,4-oxadiazole-2-yl)benzyl)-1-(2-(piperidine-1-yl)ethyl)quinazoline-2,4(1H,3H)-dione]: the results for the IC50 on HDAC6 human recombinant and on HDAC1 were 1020 nM and above 10000 nM, respectively.

As for `Cn1c(=O)n(Cc2ccc(-c3nnc(C(F)F)o3)cn2)c(=O)c2ccc(-c3ccco3)cc21` [Compound 98, 3-((5-(5-(difluoromethyl)-1,3,4-oxadiazole-2-yl)pyridine-2-yl)methyl)-7-(furan-2-yl)-1-methylquinazoline-2,4(1H,3H)-dione], the IC50 was 47 nM on HDAC6 human recombinant and above 10000 nM against HDAC1.

Turning to `CC(=O)N1CCN(c2ccc3c(c2)C(C)(C)C(=O)N(Cc2ccc(-c4nnc(C(F)F)o4)cn2)C3=O)CC1` [Compound 34, 6-(4-acetylpiperazine-1-yl)-2-((5-(5-(difluoromethyl)-1,3,4-oxadiazole-2-yl)pyridine-2-yl)methyl)-4,4-dimethylisoquinoline-1,3(2H,4H)-dione], the half-inhibitory concentration (IC50) at HDAC6 human recombinant was 27 nM; on HDAC1, above 10000 nM.

In the case of `O=c1c2ccccc2n(CCN2CCOCC2)c(=O)n1Cc1ccc(-c2nnc(C(F)F)o2)cn1` [Compound 20, 3-((5-(5-(difluoromethyl)-1,3,4-oxadiazole-2-yl)pyridine-2-yl)methyl)-1-(2-morpholinoethyl)quinazoline-2,4(1H,3H)-dione], the IC50 was 159 nM on HDAC6 human recombinant and above 10000 nM at HDAC1.

Consider `CCN1CCN(c2ccc3c(c2)C2(CCC2)C(=O)N(Cc2ccc(-c4nnc(C(F)F)o4)cn2)C3=O)CC1` [Compound 117, 2′-((5-(5-(difluoromethyl)-1,3,4-oxadiazole-2-yl)pyridine-2-yl)methyl)-6′-(4-ethylpiperazine-1-yl)-1′H-spiro[cyclobutane-1,4′-isoquinoline]-1′,3′(2′H)-dione], for which the IC50 is 22 nM at HDAC6 human recombinant and above 10000 nM at HDAC1.

For `CC(C)N1CCC(c2ccc3c(c2)C(=O)N(Cc2ccc(-c4nnc(C(F)F)o4)cn2)C(=O)C3(C)C)CC1` [Compound 69, 2-((5-(5-(difluoromethyl)-1,3,4-oxadiazole-2-yl)pyridine-2-yl)methyl)-7-(1-isopropylpiperidine-4-yl)-4,4-dimethylisoquinoline-1,3(2H,4H)-dione], the values for the IC50 at HDAC6 human recombinant and at HDAC1 were 19 nM and above 10000 nM, respectively.

Turning to `CC(C)(C)OC(=O)N1CCN(c2ccc3c(c2)C(C)(C)C(=O)N(Cc2ccc(-c4nnc(C(F)F)o4)cn2)C3=O)CC1` [Compound 25, tert-butyl 4-(2-((5-(5-(difluoromethyl)-1,3,4-oxadiazole-2-yl)pyridine-2-yl)methyl)-4,4-dimethyl-1,3-dioxo-1,2,3,4-tetrahydroisoquinoline-6-yl)piperazine-1-carboxylate], the IC50 on HDAC6 human recombinant is 158 nM; against HDAC1, above 10000 nM.
